Measurements from patent publication US11129782B2, “Derivatives of PPD useful for coloring hair and skin” (National University of Singapore, priority 2017, dated 2021).
Where “and” joins values, the source holds several entries; their conditions need not be identical. Identical values can stand only once. Like-named read-outs stand apart in the source and are kept apart here.

Assays:
[1] = tested on: lysine peptide (Ac-RFAAKAA-COOH); assay: Direct Peptide Reactivity Assay, lysine peptide; details: for % of Lysine depletion, Avg / % of Lysine depletion, Rep 2 / % of Lysine depletion, Rep 3 / Reactivity Class: 1:50; for % of Lysine depletion, Rep 1: peptide 0.02 mM : test chemical 1 mM (1:50); for Reactivity Class: lysine
Experimental: (§1) The mass spectrometric analysis was performed by use of a AB SCIEX QTRAP 5500 tandem mass spectrometry (MS/MS) system (AB SCIEX, Framingham, Mass., USA) operating in triple quadrupole positive mode (ESI+) equipped with an AB Sciex Turbo Ion Spray interface. Acquisition and analysis of data were performed with Analyst software ver. 1.6.2 (Applied Biosystems).

[2] = tested on: cysteine peptide (Ac-RFAACAA-COOH); assay: Direct Peptide Reactivity Assay, cysteine peptide; details: for % of Cysteine depletion, Avg / % of Cysteine depletion, Rep 2 / % of Cysteine depletion, Rep 3 / Reactivity Class: 1:10; for % of Cysteine depletion, Rep 1: peptide 0.02 mM : test chemical 0.2 mM (1:10); for Reactivity Class: cysteine
Experimental: For cysteine DPRA, an additional step was performed.
as §1

IL-8 = IL-8 ELISA on THP-1 cell supernatants; assay type: cell-based, human; details: preliminary ELISA, CV75
Experimental: (§2) For cytokine profiling in THP-1, supernatants from wells were collected and then used for cytokine analysis by a Chemokine immunosorbent assay Bio-legend ELISA Max kit. The levels of available IL-8 protein from THP-1 cell supernatants was estimated using this kit which are regulated upon activation of THP-1 model. Surface receptor expression of human CD-86, CD-54, MHC-I and IL-T3 were analyzed by flow cytometry using standard BD FACS analyzer with PE and FITC fluorescent labeled antibodies from Biolegend and e Bioscience.
(§3) In order to understand the effect of modified PPD hairdyes on THP-1 immune sensitization, a certain degree of Cytotoxicity at CV75% viable where 25% cell death is required before evaluation of supernatants in THP-1 models for expression of cytokine IL-8 and receptor expression of CD86, CD54, MHC-I and IL-T3 surface receptors upon treatment with standard PPD and modified hair dye compounds. Most allergens show a specific dose-dependent alteration of CD86 and/or CD54 expression or secretion of cytokine profiles. But depending on chemical, the alteration pattern may vary.

[3] = tested on: cysteine and lysine peptides; assay: Direct Peptide Reactivity Assay, mean of cysteine and lysine depletion (FIG. 12); details: for Sensitizing potential predicted from mean peptide depletion: cysteine 1:10 / lysine 1:50 model; for Mean peptide depletion: mean of cysteine (1:10) and lysine (1:50), FIG. 12
Experimental: (§4) Direct reactivity of test chemical to lysine-based synthetic peptide was determined in reactions containing 100 mM ammonium acetate buffer (pH 10.2). The final concentration of lysine peptide was 20 μM in a final reaction volume of 0.3 ml. Direct reactivity of test chemicals to cysteine-based synthetic peptide was determined in 100 mM Sodium Phosphate buffer of pH 7.5.
(§5) For the DPRA, incubation mixtures were prepared using each peptide to test compound ratios of both 1:10 for cysteine peptide and 1:50 for lysine peptide, according to Table 19. […] Sample reactions were initiated by adding 3 μl of a test chemical stock solution for cysteine and 15 μl stock solution for lysine peptide. These mixtures were then placed in a temperature-controlled shaking incubator at 25° C.
(§6) At each time point (20 mins/24 hours), the incubation mixtures were quenched with 75 μL of 95% ACN/H2O, and mildly vortexed (600 rpm, 3 seconds). For Lysine DPRA experiment, 10 μl of aliquot was diluted with 2% ACN/H2O, vortexed and stored at −80° C. until analysis by LC-MS/MS. For cysteine DPRA, an additional step was performed. 10 μl of cysteine reaction mixture, at time points 20 min and 24 h were diluted in 180 μl of 2% ACN/H2O. To which, a 10 μl aliquot of a 16 mM dithiothreitol solution (prepared in water) was then added, and samples were heated in a 45° C. oven for 30 min, then allowed to cool to room temperature prior to analysis. The peptide depletion (PD) percentage was obtained using this equation.

HaCaT cells = assay: In vitro cell cytotoxicity (MTT) assay on HaCaT cells; assay type: cell-based, human; details: for IC50: 72 h incubation, MTT
Text: HaCaT (human, adult, low calcium, high temperature, human adult skin keratinocytes) cells were obtained from the IMB (Institute of Medical Biology) Skin Cell Bank. Fetal bovine serum (FBS), Dulbecco's minimum essential medium (DMEM) and trypsin EDTA solution were purchased from GE healthcare life sciences, Utah. Penicillin/streptomycin, dimethyl sulfoxide (DMSO), and phosphate buffered saline (PBS) were from Fisher Scientific (Singapore). Para-phenylenediamine (PPD) was purchased from Sigma Aldrich (Singapore). PPD analogues such as Dimer, trimer, ethyl hexyl para-phenylenediamine (EHPPD), hexyl para-phenylenediamine (HPPD), Bandrowski base (BB) were synthesized in house.
Cell viability was essentially determined using the MTT assay as described in the literature. The HaCaT cells were grown in DMEM with 10% FBS and 1% penicillin/streptomycin. The cells in T-75 cm^2 culture flasks were incubated with 5% CO2 at 37° C. in a humidified incubator. The HaCaT cells were grown to expected confluency and then they were harvested by trypsinizing the cell with 0.25% trypsin/EDTA and incubated at 37° C. for 5 min to obtain the complete cell detachment. After the incubation, cell pellets were resuspended, and washed twice with 1×PBS. The cell suspension in 1×PBS was counted and adjusted to 1×10^5/mL. A HaCaT keratinocyte suspension (100 μL in 1×PBS) with a cell concentration of 1×10^5 cells/mL) and a test solution (100 μL in milli-Q water) were combined in each well of two 96-well plates. Test solutions with a desired concentration were prepared by serial dilutions of the stock solutions with 1×PBS.
For the cytotoxicity experiment, cells were seeded at a density of 5×10^3 in 200 ul of medium into each well of 96-well plates. Cells were seeded as three sets of four replicates for each concentration. After 24 h of incubation, the cells were washed with PBS and cultured for 72 h with 200 ul of 10% FBS containing DMEM medium, together with the different concentrations of the test compounds ranging from 500 μM to 1.9 μM for PPD and analogues 1-5 and standard in a serial dilution. Then the medium was removed and 100 μl of MTT [3-(4,5-dimethylthiazol-2yl)-2,5-diphenyl-2H-tetrazolium bromide](1 mg/ml) (Alfa Aesar, Singapore) in PBS was added. At the end of 4 h incubation, the plates were removed from the incubator and plates were shaken for 5 min. The absorbance at 570 nm was determined using Bio-Tek plate reader. The cell viability rates were calculated from absorbance readings and represented as percentages of control value (untreated cells).

[4] = Solubility observed when preparing dyes; assay type: physicochemical; details: water / organic solvents
[5] = Skin permeation in vertical Franz diffusion cells; assay type: in vitro ADME, porcine; details: 8 h; for Penetration profile PPD vs derivatives (times less than PPD): ratio of PPD penetration to that of the compound; for recovery at 8 h, 1 % w/v: pig, read-out: % Parent compound Recovery (mean)
Experimental: Porcine ears were generously provided by the NUS Department of Surgery. The ears were frozen at −80° C. until use (up to 3 months) and thawed at room temperature on the day preceding the experiment. Prior to the experiment, the skin was separated from the cartilage and dermatomed to a thickness of ˜1.0 mm using an Acculan™ 3Ti dermatome (Aesculap, Inc., B. Braun, USA).
The PPD and derivatives were dissolved in deionized water at 1% w/v. The PPD and PPD derivatives 1-5 solutions were purged with argon gas to minimize oxidation of the donor solution.
Skin penetration studies were carried out using vertical Franz diffusion cells (PermeGear, USA) immersed in a 37° C. water bath. The donor and receptor volumes were 900 µL and 5 mL, respectively; the mean surface area of penetration was 0.64 cm^2. Upon insertion of the skin pieces into the Franz cells, the skin was equilibrated for 45 min with PBS in the receptor compartment. After equilibration, the skin's trans-epidermal water loss (TEWL) was measured using an Aquaflux AF300 (Biox, UK) to assess the integrity of the skin's stratum corneum barrier. The donor solution, consisting of PPD or derivative 1-5 (n=3 Franz cells each), was then added to the donor compartment and the penetration experiments were conducted for 8 h. The receptor solutions were continuously stirred with magnetic stirrers. At fixed time points, aliquots of 200 μL were taken from the receptor solution of each cell and the receptor solution topped up with 200 μL of fresh PBS. At the end of the experiment, the donor and receptor solutions were removed and the cells dismantled. For the purpose of mass balance on the PPD, PPD derivatives 1-5 the skin pieces and swabs of their outer surfaces were collected and stored in acetonitrile for PPD or derivative 1-5 extraction. The donor solution as well as PBS used to thoroughly wash each part of the Franz cells were also collected.
PPD, PPD derivatives 1-5 and metabolite concentrations in all permeation and mass balance samples were measured by LCMS. PPD steady state fluxes and permeability coefficients were calculated by fitting the solution to Fick's second law of diffusion at the steady state to the linear part of each experimental cumulative amount curve.
The validated method LCMS was applied to quantify PPD, PPD derivative 1-5 and metabolites from skin permeation study samples. FIGS. 3 and 4 show LCMS spectra for the identification of PPD and PPD derivatives 1 and 2 and metabolites from skin permeation study experiment.

ILT3 = ILT3 surface expression on THP-1 by flow cytometry; assay type: cell-based, human; details: in comparison to DCNB
Experimental: as §2, §3

CD86 = CD86 surface expression on THP-1 by flow cytometry; assay type: cell-based, human
Experimental: as §2, §3

CD54 = CD54 surface expression on THP-1 by flow cytometry; assay type: cell-based, human
Experimental: as §2, §3

[6] = tested on: cysteine and lysine peptides
Experimental: as §4, §5, §6

Row | % Parent compound Penetrated (mean) ([5]; 1% W/V applied) [%] | % converted to metabolite (mean) ([5]; 1% W/V applied) [%] | SMILES | % of Lysine depletion, Avg ([1]; 20 min) [%] | % of Lysine depletion, Rep 2 ([1]; 20 min) [%] | % of Lysine depletion, Rep 3 ([1]; 20 min) [%] | % of Lysine depletion, Rep 1 ([1]; 20 min) [%] | % of Lysine depletion, Avg ([1]; 24 h) [%] | % of Lysine depletion, Rep 2 ([1]; 24 h) [%] | % of Lysine depletion, Rep 3 ([1]; 24 h) [%] | % of Lysine depletion, Rep 1 ([1]; 24 h) [%] | Reactivity Class ([1]; 20 min) | Reactivity Class ([1]; 24 h) | % of Cysteine depletion, Avg ([2]; 20 min) [%] | % of Cysteine depletion, Rep 2 ([2]; 20 min) [%] | % of Cysteine depletion, Rep 3 ([2]; 20 min) [%] | % of Cysteine depletion, Rep 1 ([2]; 20 min) [%] | % of Cysteine depletion, Avg ([2]; 24 h) [%] | % of Cysteine depletion, Rep 2 ([2]; 24 h) [%] | IL-8 expression (IL-8) | IC50 (HaCaT cells) [µM] | also measured
1 |  |  | NC1=CC(=Nc2ccc(N)cc2)C(N)=CC1=Nc1ccc(N)cc1 [Bandrowski Base, reference compound] | 6.7 | 7.89 | 2.54 | 9.58 | 5.6 | 6.0 | 5.5 | 5.4 | Low | Low | 44.2 | 44.5 | 45.5 | 42.5 | 70.7 | 69.9 | increased expression | 6.09 | % of Cysteine depletion, Rep 3 ([2]; 24 h): 70.4%; % of Cysteine depletion, Rep 1 ([2]; 24 h): 71.8%; Reactivity Class ([2]; 20 min): High; Reactivity Class ([2]; 24 h): High; Sensitizing potential predicted from mean peptide depletion [3]: moderate sensitizer; Mean peptide depletion [3]: 38.9%; Solubility (in words) [4]: limited solubility in water
2 | 0.00015 | 0.01 | CCCCCCOC(=O)c1cc(Nc2ccc(N)cc2)ccc1N [PPD derivative 6, hexyl 2-amino-5-((4-aminophenyl)amino)benzoate] |  |  |  |  |  |  |  |  |  |  |  |  |  |  |  |  | do not stimulate IL-8 expression |  | ILT3 (inhibitory receptor) expression (ILT3): increased; Expression of CD86 (CD86): not stimulated; IC50 (HaCaT cells; Homo sapiens, HaCaT, 72 h): 10.5 µM; Permeation less than PPD [5]: about 2 order of magnitude; recovery at 8 h, 1 % w/v ([5]; 1% W/V applied): 95.4%; Penetration profile PPD vs derivatives (times less than PPD) [5]: 1080; Expression of CD54 (CD54): not stimulated
3 |  |  | Nc1ccc(Nc2ccc(Nc3ccc(Nc4ccc(N)cc4)cc3)cc2)cc1 [PPD derivative 8, 4,4′-Bis[(4-aminophenyl)amino]diphenylamine] |  |  |  |  |  |  |  |  |  |  |  |  |  |  |  |  | increased expression | 6.92 | Sensitizing potential predicted from mean peptide depletion [6]: high sensitizing agents
4 |  |  | Cc1ccc(NCc2ccc(-c3ccc(Nc4ccc(N)cc4)cc3)cc2)cc1 [PPD derivative 9, 4-Amino-4′-[(4-tolylaminomethyl)phenyl]diphenylamine] |  |  |  |  |  |  |  |  |  |  |  |  |  |  |  |  |  | 6.8 | Mean peptide depletion [3]: 17.9%; Sensitizing potential predicted from mean peptide depletion [6]: weak sensitizer
5 | 0.0001 | 0.0108 | CCCCCCOC(=O)c1cc(N)ccc1N [PPD derivative 15, Hexyl-2,5-diaminobenzoate] |  |  |  |  |  |  |  |  |  |  |  |  |  |  |  |  | do not stimulate IL-8 expression |  | ILT3 (inhibitory receptor) expression (ILT3): increased; Expression of CD86 (CD86): not stimulated; Improvement of cell viability in comparison to PPD 4 (HaCaT cells): about 5 times; IC50 (HaCaT cells; Homo sapiens, HaCaT, 72 h): 160 µM; Permeation less than PPD [5]: about 2 order of magnitude; recovery at 8 h, 1 % w/v ([5]; 1% W/V applied): 96.7%; Penetration profile PPD vs derivatives (times less than PPD) [5]: 1620; Expression of CD54 (CD54): not stimulated

Row | SMILES | % Parent compound Penetrated (mean) ([5]; 1% W/V applied) [%] | % converted to metabolite (mean) ([5]; 1% W/V applied) [%] | % of Lysine depletion, Avg ([1]; 20 min) [%] | % of Lysine depletion, Rep 2 ([1]; 20 min) [%] | % of Lysine depletion, Rep 3 ([1]; 20 min) [%] | % of Lysine depletion, Rep 1 ([1]; 20 min) [%] | % of Lysine depletion, Avg ([1]; 24 h) [%] | % of Lysine depletion, Rep 2 ([1]; 24 h) [%] | % of Lysine depletion, Rep 3 ([1]; 24 h) [%] | % of Lysine depletion, Rep 1 ([1]; 24 h) [%] | Reactivity Class ([1]; 20 min) | Reactivity Class ([1]; 24 h) | % of Cysteine depletion, Avg ([2]; 20 min) [%] | % of Cysteine depletion, Rep 2 ([2]; 20 min) [%] | % of Cysteine depletion, Rep 3 ([2]; 20 min) [%] | % of Cysteine depletion, Rep 1 ([2]; 20 min) [%] | % of Cysteine depletion, Avg ([2]; 24 h) [%] | % of Cysteine depletion, Rep 2 ([2]; 24 h) [%] | IL-8 expression (IL-8) | IC50 (HaCaT cells) [µM] | also measured
6 | Nc1ccc(Nc2ccc(N)cc2)cc1 [PPD derivative 1, 4,4′-Diaminodiphenylamine] | 0.00314 | 0.0104 | 7.79 | 6.48 | 9.01 | 7.89 | 23.8 | 28 | 22.3 | 21 | Low | Moderate | 41.5 | 40.5 | 41.5 | 42.6 | 69.4 | 69.6 | increased expression | 49.3 | % of Cysteine depletion, Rep 3 ([2]; 24 h): 69.3%; % of Cysteine depletion, Rep 1 ([2]; 24 h): 69.5%; Reactivity Class ([2]; 20 min): Moderate; Reactivity Class ([2]; 24 h): High; Sensitizing potential predicted from mean peptide depletion [3]: high sensitizing agents; Fold increase in IC50 compared to PPD (HaCaT cells): ~2 fold; % Parent compound Recovery (mean) ([5]; 1% W/V applied): 93.85%; Penetration profile PPD vs derivatives (times less than PPD) ([5]; listed as PPD 1): 51 and 51.6; Solubility (in words) [4]: showed solubility in a mixture of 10% methanol in water
